Measured values published in the supplement of paper PMC10307832.

How the values were obtained:
Test in all cases: relative viability (nuclei count vs DMSO), 5 days (fraction); higher = more cells survive
Veliparib + Alpelisib = compound: C[C@]1(c2nc3c(C(N)=O)cccc3[nH]2)CCCN1 [Veliparib] + Cc1nc(NC(=O)N2CCC[C@H]2C(N)=O)sc1-c1ccnc(C(C)(C)C(F)(F)F)c1 [Alpelisib] (partner 2 µM)
How it was run: (§1)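 Nuclei were stained with Hoechst during a one-step fixation (final 0.05% Triton X-100, 1% formaldehyde, 1 ug/ml Hoechst) carried out 5 days after dosing, then counted on 4× images. The cells, lung cancer lines in 1536-well plates, had been dosed by pin tool the day after seeding with one drug alone or a fixed anchor-drug dose plus five library-drug doses (not always all listed) in √10 steps. Relative viability is the nuclei count in treated wells divided by that in vehicle wells, and each value is the median of duplicate plates.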

[1] = compound: COC1=CC=C(C=C1)CN2C=CC3=C2C=C(C=C3)C(=O)NO + N=C(N)NC(=N)NCCc1ccccc1 [Phenformin] (partner 250 µM)
How it was run: as §1

[2] = compound: COC1=CC=C(C=C1)CN2C=CC3=C2C=C(C=C3)C(=O)NO + CC1(C)CCC(c2ccc(Cl)cc2)=C(CN2CCN(c3ccc(C(=O)NS(=O)(=O)c4ccc(N[C@H](CCN5CCOCC5)CSc5ccccc5)c(S(=O)(=O)C(F)(F)F)c4)cc3)CC2)C1 [Navitoclax] (partner 0.5 µM)
How it was run: as §1

Veliparib + Luminespib = compound: C[C@]1(c2nc3c(C(N)=O)cccc3[nH]2)CCCN1 [Veliparib] + CCNC(=O)c1noc(-c2cc(C(C)C)c(O)cc2O)c1-c1ccc(CN2CCOCC2)cc1 [Luminespib] (partner 0.01 µM)
How it was run: as §1

Cell Line | relative viability (Veliparib + Alpelisib; first compound 0.02 µM) | relative viability (Veliparib + Alpelisib; first compound 0.06325 µM) | relative viability (Veliparib + Alpelisib; first compound 0.2 µM) | relative viability (Veliparib + Alpelisib; first compound 0.6325 µM) | relative viability (Veliparib + Alpelisib; first compound 2 µM) | relative viability ([1]; first compound 0.08 µM) | relative viability ([1]; first compound 0.253 µM) | relative viability ([1]; first compound 0.8 µM) | relative viability ([1]; first compound 2.53 µM) | relative viability ([1]; first compound 8 µM) | relative viability ([2]; first compound 0.253 µM) | relative viability ([2]; first compound 0.8 µM) | relative viability ([2]; first compound 2.53 µM) | relative viability ([2]; first compound 8 µM) | relative viability (Veliparib + Luminespib; first compound 0.02 µM) | relative viability (Veliparib + Luminespib; first compound 0.06325 µM) | relative viability (Veliparib + Luminespib; first compound 0.2 µM) | relative viability (Veliparib + Luminespib; first compound 0.6325 µM) | relative viability (Veliparib + Luminespib; first compound 2 µM) | relative viability ([2]; first compound 0.08 µM)
HCC-366 | 0.452 | 0.234 | 0.365 | 0.384 | 0.411 | 0.633 | 0.624 | 0.634 | 0.599 | 0.532 | 1.05 | 1.14 | 1.06 | 1.13 | – | – | – | – | – | –
HCC-827 | 0.922 | 1.02 | 0.986 | 0.971 | 0.899 | 0.427 | 0.382 | 0.386 | 0.417 | 0.394 | 0.964 | 0.988 | 1.08 | 0.986 | 0.468 | 0.692 | 0.654 | 0.493 | 0.588 | 0.95
HOP-62 | 1.11 | 0.928 | 1.15 | 0.836 | 0.785 | 0.583 | 0.658 | 0.696 | 0.643 | 0.623 | 0.984 | 1.02 | 1.08 | 1.02 | 0.831 | 0.858 | 0.783 | 0.669 | 0.836 | 0.547
IA-LM | 0.796 | 0.764 | 0.684 | 0.503 | 0.968 | – | – | – | – | – | 0.882 | 1.02 | 0.851 | 0.695 | – | – | – | – | – | 0.675
LC-2-ad | – | 0.783 | 0.846 | 0.926 | 0.897 | 0.493 | 0.577 | 0.561 | 0.588 | 0.479 | 0.427 | 0.561 | 0.527 | 0.552 | – | 0.947 | 1.04 | 0.982 | 1.03 | 0.421
LCLC-97TM1 | 0.263 | 0.271 | 0.258 | – | 0.232 | 0.176 | 0.399 | 0.441 | 0.46 | 0.353 | 0.505 | 0.472 | 0.42 | 0.412 | 0.729 | 0.729 | 0.884 | 0.671 | 0.678 | –
LCLC-103H | 1.13 | 0.896 | 0.936 | 1.06 | 0.949 | 0.339 | 0.339 | 0.398 | 0.347 | 0.287 | – | – | – | – | 0.987 | 0.888 | 1.04 | 0.907 | 0.992 | –
LK-2 | – | 1.01 | 1.38 | 0.996 | 1.1 | – | 0.462 | 0.579 | 0.396 | 0.24 | 0.906 | 1 | 0.958 | 0.747 | – | 0.184 | 0.202 | 0.19 | 0.193 | –
LOU-NH91 | 0.698 | 0.72 | 0.76 | 0.706 | 0.748 | 0.612 | 0.678 | 0.702 | 0.766 | 0.637 | 0.677 | 0.739 | 0.725 | 0.576 | 0.339 | 0.401 | 0.352 | 0.285 | 0.342 | 0.419
LU99A | 0.504 | 0.459 | 0.544 | 0.509 | 0.569 | – | 0.826 | 0.915 | 0.875 | 0.685 | 0.787 | 0.803 | 0.847 | 0.878 | 0.284 | 0.25 | 0.191 | 0.228 | 0.237 | –
LXF-289 | 1.02 | 1.02 | 0.997 | 1.01 | 1.06 | – | 0.554 | 0.517 | 0.512 | 0.508 | 0.947 | 0.954 | 0.935 | 1.03 | 0.652 | 0.712 | 0.759 | 0.545 | 0.601 | 0.446
NCI-H358 | – | 0.763 | 0.953 | 0.775 | 1.01 | – | 0.351 | 0.411 | 0.314 | 0.267 | – | – | – | – | 0.308 | 0.975 | 0.248 | 0.246 | 0.548 | –
NCI-H522 | – | – | – | – | – | – | 0.591 | 0.614 | 0.654 | 0.651 | – | – | – | – | 1.18 | 1.21 | 1.16 | 1.18 | 1.25 | –
NCI-H650 | 1.28 | 0.983 | 1.23 | 0.999 | 1.2 | 0.468 | 0.45 | 0.488 | 0.458 | 0.399 | – | – | – | – | 0.768 | 0.708 | 0.652 | 0.721 | 0.797 | –
NCI-H661 | 0.361 | 0.581 | 0.653 | 0.701 | 0.699 | – | 0.271 | 0.313 | 0.272 | 0.29 | – | – | – | – | 0.863 | 0.931 | 0.839 | 0.785 | 0.934 | –
NCI-H1299 | 1.04 | 0.992 | 1.03 | 0.985 | 1.05 | – | – | – | – | – | 1.06 | 1.07 | 1.07 | 1.02 | – | – | – | – | – | 1.01
NCI-H1563 | 0.981 | 0.965 | 1 | 0.826 | 1.04 | 0.622 | 0.676 | 0.671 | 0.664 | 0.534 | – | – | – | – | 0.484 | 0.536 | 0.526 | 0.49 | 0.535 | –
NCI-H1623 | – | – | – | – | – | 0.396 | 0.581 | 0.542 | 0.616 | 0.513 | – | – | – | – | – | 0.467 | 0.596 | 0.434 | 0.409 | –
NCI-H1650 | – | – | – | – | – | 0.4 | 0.447 | 0.422 | 0.334 | 0.204 | 1.32 | 1.17 | 1.18 | 0.925 | – | 0.216 | 0.194 | 0.199 | 0.217 | 1.07
NCI-H1703 | 0.245 | 0.303 | 0.316 | 0.35 | 0.368 | – | – | – | – | – | 1.09 | 1.27 | 1.01 | 1.08 | – | – | – | – | – | 1.49
NCI-H2342 | – | – | – | – | – | 0.588 | 0.511 | 0.48 | 0.453 | 0.409 | – | – | – | – | 0.687 | 0.729 | 0.594 | 0.972 | 0.666 | –
SW 900 | – | – | – | – | – | 0.643 | 0.652 | 0.593 | 0.512 | 0.339 | – | – | – | – | – | – | 0.204 | 0.19 | 0.118 | –
